{"source": "patent US9302988B2", "about": "“Fluoromethyl-substituted pyrrole carboxamides” (GRÜNENTHAL GMBH, priority 2012, dated 2016)"}
{"target": "T1, Human CaV2.2 channels (Homo sapiens, UniProt Q00975)", "T1 construct": "expressed in transfected cells", "T1 sequence (Q00975 whole entry)": "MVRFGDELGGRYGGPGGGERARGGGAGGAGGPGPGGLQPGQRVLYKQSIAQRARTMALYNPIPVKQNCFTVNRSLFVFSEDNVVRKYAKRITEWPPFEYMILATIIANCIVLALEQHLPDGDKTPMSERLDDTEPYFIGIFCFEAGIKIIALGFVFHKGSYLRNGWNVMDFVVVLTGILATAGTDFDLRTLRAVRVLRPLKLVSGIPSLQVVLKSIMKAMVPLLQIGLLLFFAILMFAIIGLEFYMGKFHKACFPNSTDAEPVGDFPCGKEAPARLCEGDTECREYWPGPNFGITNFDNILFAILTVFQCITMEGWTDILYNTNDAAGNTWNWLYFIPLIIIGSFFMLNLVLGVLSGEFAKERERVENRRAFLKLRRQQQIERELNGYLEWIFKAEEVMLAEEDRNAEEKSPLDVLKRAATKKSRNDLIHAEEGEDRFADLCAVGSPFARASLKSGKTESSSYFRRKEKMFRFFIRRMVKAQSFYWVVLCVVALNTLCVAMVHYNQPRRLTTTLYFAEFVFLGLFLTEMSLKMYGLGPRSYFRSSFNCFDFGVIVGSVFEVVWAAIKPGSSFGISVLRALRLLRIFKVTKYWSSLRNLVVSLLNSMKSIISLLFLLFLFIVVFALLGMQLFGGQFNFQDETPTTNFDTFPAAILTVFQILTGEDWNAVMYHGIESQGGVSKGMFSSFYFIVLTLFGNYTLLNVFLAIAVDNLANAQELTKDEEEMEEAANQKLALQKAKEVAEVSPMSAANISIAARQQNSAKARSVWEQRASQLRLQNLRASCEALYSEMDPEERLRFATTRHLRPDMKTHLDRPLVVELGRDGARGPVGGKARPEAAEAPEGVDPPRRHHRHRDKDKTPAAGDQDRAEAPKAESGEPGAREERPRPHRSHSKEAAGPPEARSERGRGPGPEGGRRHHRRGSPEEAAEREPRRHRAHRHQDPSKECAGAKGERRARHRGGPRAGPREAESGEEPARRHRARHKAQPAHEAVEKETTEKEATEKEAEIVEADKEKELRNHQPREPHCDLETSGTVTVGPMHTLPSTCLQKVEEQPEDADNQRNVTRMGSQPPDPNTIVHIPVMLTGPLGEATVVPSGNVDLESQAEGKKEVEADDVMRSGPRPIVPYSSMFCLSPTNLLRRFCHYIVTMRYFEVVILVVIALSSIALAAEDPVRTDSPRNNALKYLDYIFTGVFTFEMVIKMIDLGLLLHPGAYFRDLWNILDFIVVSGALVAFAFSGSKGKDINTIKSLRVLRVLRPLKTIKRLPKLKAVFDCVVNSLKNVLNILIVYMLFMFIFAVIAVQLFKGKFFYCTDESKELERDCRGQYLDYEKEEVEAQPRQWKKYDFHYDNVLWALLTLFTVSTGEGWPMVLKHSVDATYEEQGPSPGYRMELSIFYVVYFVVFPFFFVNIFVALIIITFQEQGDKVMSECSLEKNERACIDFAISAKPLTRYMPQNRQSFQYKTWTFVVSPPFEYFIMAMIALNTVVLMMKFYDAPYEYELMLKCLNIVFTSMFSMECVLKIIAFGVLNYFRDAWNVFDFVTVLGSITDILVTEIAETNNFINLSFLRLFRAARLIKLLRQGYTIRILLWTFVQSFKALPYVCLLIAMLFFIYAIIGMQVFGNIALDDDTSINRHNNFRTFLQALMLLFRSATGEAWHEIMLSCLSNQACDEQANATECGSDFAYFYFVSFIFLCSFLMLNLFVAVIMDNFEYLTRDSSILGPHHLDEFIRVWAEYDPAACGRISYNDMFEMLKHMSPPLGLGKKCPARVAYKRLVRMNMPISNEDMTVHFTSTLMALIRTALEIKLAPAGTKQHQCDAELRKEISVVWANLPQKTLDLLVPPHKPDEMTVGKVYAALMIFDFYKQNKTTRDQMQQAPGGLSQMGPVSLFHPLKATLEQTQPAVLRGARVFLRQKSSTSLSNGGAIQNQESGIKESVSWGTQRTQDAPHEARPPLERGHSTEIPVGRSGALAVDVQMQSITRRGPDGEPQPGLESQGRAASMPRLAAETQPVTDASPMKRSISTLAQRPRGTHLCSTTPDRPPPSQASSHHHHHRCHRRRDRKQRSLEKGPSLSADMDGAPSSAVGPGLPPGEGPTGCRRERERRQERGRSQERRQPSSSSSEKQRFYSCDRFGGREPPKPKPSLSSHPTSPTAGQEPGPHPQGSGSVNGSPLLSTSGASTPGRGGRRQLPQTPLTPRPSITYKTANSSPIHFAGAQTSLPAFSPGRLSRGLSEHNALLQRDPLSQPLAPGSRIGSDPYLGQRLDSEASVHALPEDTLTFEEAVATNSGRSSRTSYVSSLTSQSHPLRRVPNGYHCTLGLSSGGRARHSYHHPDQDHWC", "T1 sequence (P54289 25-1103, further chain)": "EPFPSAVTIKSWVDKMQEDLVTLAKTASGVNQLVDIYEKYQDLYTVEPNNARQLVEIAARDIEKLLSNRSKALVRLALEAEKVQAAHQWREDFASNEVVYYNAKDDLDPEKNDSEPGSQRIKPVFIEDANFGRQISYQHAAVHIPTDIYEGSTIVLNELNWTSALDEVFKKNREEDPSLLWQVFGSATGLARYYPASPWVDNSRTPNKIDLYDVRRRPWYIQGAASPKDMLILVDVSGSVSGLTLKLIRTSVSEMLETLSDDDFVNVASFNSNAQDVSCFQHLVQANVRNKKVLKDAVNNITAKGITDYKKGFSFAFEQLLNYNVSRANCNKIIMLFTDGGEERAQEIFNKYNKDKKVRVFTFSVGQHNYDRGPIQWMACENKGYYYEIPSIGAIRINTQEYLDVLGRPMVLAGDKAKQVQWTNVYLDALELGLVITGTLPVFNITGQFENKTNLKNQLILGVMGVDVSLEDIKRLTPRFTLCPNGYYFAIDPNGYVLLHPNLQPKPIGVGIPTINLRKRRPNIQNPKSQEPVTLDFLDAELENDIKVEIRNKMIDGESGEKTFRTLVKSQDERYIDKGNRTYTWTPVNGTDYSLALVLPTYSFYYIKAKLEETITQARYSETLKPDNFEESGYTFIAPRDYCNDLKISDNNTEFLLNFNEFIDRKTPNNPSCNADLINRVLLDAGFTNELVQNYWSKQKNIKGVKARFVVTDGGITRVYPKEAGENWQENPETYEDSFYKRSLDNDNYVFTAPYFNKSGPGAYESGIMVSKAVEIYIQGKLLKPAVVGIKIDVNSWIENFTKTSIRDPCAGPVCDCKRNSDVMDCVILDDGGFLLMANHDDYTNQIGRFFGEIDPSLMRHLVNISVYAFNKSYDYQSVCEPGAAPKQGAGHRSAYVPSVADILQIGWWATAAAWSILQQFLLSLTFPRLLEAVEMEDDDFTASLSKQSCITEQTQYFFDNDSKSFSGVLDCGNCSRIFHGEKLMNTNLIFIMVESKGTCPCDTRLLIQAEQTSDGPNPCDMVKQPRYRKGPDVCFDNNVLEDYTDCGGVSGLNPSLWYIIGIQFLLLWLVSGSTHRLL", "T1 sequence (P54284 whole entry, further chain)": "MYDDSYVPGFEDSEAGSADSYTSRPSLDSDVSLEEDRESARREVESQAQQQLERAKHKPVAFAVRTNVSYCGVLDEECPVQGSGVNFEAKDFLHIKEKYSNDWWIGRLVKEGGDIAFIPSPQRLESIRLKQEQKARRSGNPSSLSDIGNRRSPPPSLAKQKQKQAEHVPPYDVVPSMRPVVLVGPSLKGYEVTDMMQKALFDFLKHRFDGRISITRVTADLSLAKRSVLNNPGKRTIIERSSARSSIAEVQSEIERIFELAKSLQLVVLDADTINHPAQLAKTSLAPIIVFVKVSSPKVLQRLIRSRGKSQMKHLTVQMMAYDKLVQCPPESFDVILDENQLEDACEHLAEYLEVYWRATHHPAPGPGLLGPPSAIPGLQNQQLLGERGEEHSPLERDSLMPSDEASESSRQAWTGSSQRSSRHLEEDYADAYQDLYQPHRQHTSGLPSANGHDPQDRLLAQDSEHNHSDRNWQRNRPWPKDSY", "test": "Fluorescent assay for CaV2.2 channels using potassium depolarization to induce channel opening (FLIPR, Fluo-4)", "type": "cell-based", "conditions": "3 μM test compound, 30 mM KCl, HEK293 cells stably expressing human CaV2.2; read-out: %-Inhib (CaV2.2) @3 μM @30 mM KCl", "summary_of_the_method": "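HEK293 cells stably co-expressing CaV2.2 with α2δ and β subunits plus Kir2.3 were Fluo-4 loaded, then preincubated 15 min at 25 °C with compound in 30 mM KCl buffer, pH 7.4. Depolarization was by adding buffer containing 210 mM KCl. Inhibition was taken from baseline-normalized peak fluorescence amplitude (ex 480/em 535 nm).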", "units": {"inhibition at 3 µM": "%"}}
{"smiles": "CN(CC1(C)COC1)C(=O)c1c(-c2ccc(Cl)cc2)cc(C(F)(F)F)n1Cc1ccccc1", "note": "[SC-78, 1-Benzyl-3-(4-chlorophenyl)-N-methyl-N-[(3-methyl-oxetan-3-yl)-methyl]-5-(trifluoromethyl)-1H-pyrrole-2-carboxylic acid amide]", "inhibition at 3 µM": "> 95"}
{"smiles": "CN(CC(C)(C)CO)C(=O)c1c(-c2ccc(Cl)cc2)cc(C(F)(F)F)n1Cc1ccccc1", "note": "[SC-79, 1-Benzyl-3-(4-chlorophenyl)-N-(3-hydroxy-2,2-dimethyl-propyl)-N-methyl-5-(trifluoromethyl)-1H-pyrrole-2-carboxylic acid amide]", "inhibition at 3 µM": "> 95"}
{"smiles": "CN(C)C(=O)c1c(-c2ccc(Cl)cc2)cc(C(F)(F)F)n1Cc1ccccc1", "note": "[SC-80, 1-Benzyl-3-(4-chlorophenyl)-N,N-dimethyl-5-(trifluoromethyl)-1H-pyrrole-2-carboxylic acid amide]", "inhibition at 3 µM": "75 to 95"}
{"smiles": "O=C1CN(C(=O)c2c(-c3ccc(Cl)cc3)cc(C(F)(F)F)n2Cc2cccc(Cl)c2)CCN1", "note": "[SC-81, 4-[3-(4-Chlorophenyl)-1-[(3-chlorophenyl)-methyl]-5-(trifluoromethyl)-1H-pyrrole-2-carbonyl]-piperazin-2-one]", "inhibition at 3 µM": "> 95"}
{"smiles": "CC1(C)CN(C(=O)c2c(-c3ccc(Cl)cc3)cc(C(F)(F)F)n2Cc2ccccc2)CCN1", "note": "[SC-82, [1-Benzyl-3-(4-chlorophenyl)-5-(trifluoromethyl)-1H-pyrrol-2-yl]-(3,3-dimethyl-piperazin-1-yl)-methanone]", "inhibition at 3 µM": "75 to 95"}
{"smiles": "CN(C(=O)c1c(-c2ccc(Cl)cc2)cc(C(F)(F)F)n1Cc1ccccc1)C1CCS(=O)(=O)C1", "note": "(stereo not shown) [SC-83, 1-Benzyl-3-(4-chlorophenyl)-N-(1,1-dioxo-thiolan-3-yl)-N-methyl-5-(trifluoromethyl)-1H-pyrrole-2-carboxylic acid amide]", "inhibition at 3 µM": "> 95"}
{"smiles": "CN(CCC(C)(C)C)C(=O)c1c(-c2ccc(Cl)cc2)cc(C(F)(F)F)n1Cc1ccccc1", "note": "[SC-84, 1-Benzyl-3-(4-chlorophenyl)-N-(3,3-dimethyl-butyl)-N-methyl-5-(trifluoromethyl)-1H-pyrrole-2-carboxylic acid amide]", "inhibition at 3 µM": "40 to 75"}
{"smiles": "CN(CC(C)(C)N1CCOCC1)C(=O)c1c(-c2ccc(Cl)cc2)cc(C(F)(F)F)n1Cc1ccccc1", "note": "[SC-85, 1-Benzyl-3-(4-chlorophenyl)-N-methyl-N-(2-methyl-2-morpholin-4-yl-propyl)-5-(trifluoromethyl)-1H-pyrrole-2-carboxylic acid amide]", "inhibition at 3 µM": "> 95"}
{"smiles": "O=C(c1c(-c2ccc(Cl)cc2F)cc(C(F)(F)F)n1Cc1ccccc1)N1CCOCC1", "note": "[SC-86, [1-Benzyl-3-(4-chloro-2-fluoro-phenyl)-5-(trifluoromethyl)-1H-pyrrol-2-yl]-morpholin-4-yl-methanone]", "inhibition at 3 µM": "> 95"}
{"smiles": "CN(CC(C)(C)O)C(=O)c1c(-c2ccc(Cl)cc2F)cc(C(F)(F)F)n1Cc1ccccc1", "note": "[SC-87, 1-Benzyl-3-(4-chloro-2-fluoro-phenyl)-N-(2-hydroxy-2-methyl-propyl)-N-methyl-5-(trifluoromethyl)-1H-pyrrole-2-carboxylic acid amide]", "inhibition at 3 µM": "> 95"}
{"smiles": "CN(CC(C)(C)C)C(=O)c1c(-c2ccc(Cl)cc2F)cc(C(F)(F)F)n1Cc1ccccc1", "note": "[SC-88, 1-Benzyl-3-(4-chloro-2-fluoro-phenyl)-N-(2,2-dimethyl-propyl)-N-methyl-5-(trifluoromethyl)-1H-pyrrole-2-carboxylic acid amide]", "inhibition at 3 µM": "75 to 95"}
{"smiles": "O=C1CN(C(=O)c2c(-c3ccc(Cl)cc3F)cc(C(F)(F)F)n2Cc2ccccc2)CCN1", "note": "[SC-89, 4-[1-Benzyl-3-(4-chloro-2-fluoro-phenyl)-5-(trifluoromethyl)-1H-pyrrole-2-carbonyl]-piperazin-2-one]", "inhibition at 3 µM": "75 to 95"}
{"smiles": "CN(CCS(C)(=O)=O)C(=O)c1c(-c2ccc(Cl)cc2F)cc(C(F)(F)F)n1Cc1ccccc1", "note": "[SC-90, 1-Benzyl-3-(4-chloro-2-fluoro-phenyl)-N-methyl-N-(2-methylsulfonyl-ethyl)-5-(trifluoromethyl)-1H-pyrrole-2-carboxylic acid amide]", "inhibition at 3 µM": "> 95"}
{"smiles": "CN(CC(C)(C)S(C)(=O)=O)C(=O)c1c(-c2ccc(Cl)cc2)cc(C(F)(F)F)n1Cc1ccccc1", "note": "[SC-92, 1-Benzyl-3-(4-chlorophenyl)-N-methyl-N-(2-methyl-2-methylsulfonyl-propyl)-5-(trifluoromethyl)-1H-pyrrole-2-carboxylic acid amide]", "inhibition at 3 µM": "> 95"}
{"smiles": "Cc1c(-c2ccc(Cl)cc2)c(C(=O)N2CC(F)(F)C2)n(Cc2ccccc2)c1C(F)(F)F", "note": "[SC-93, [1-Benzyl-3-(4-chlorophenyl)-4-methyl-5-(trifluoromethyl)-1H-pyrrol-2-yl]-(3,3-difluoro-azetidin-1-yl)-methanone]", "inhibition at 3 µM": "75 to 95"}
{"smiles": "O=C(c1c(-c2ccc(Cl)cc2)cc(C(F)(F)F)n1Cc1ccccc1)N1CC(F)(F)C1", "note": "[SC-94, [1-Benzyl-3-(4-chlorophenyl)-5-(trifluoromethyl)-1H-pyrrol-2-yl]-(3,3-difluoro-azetidin-1-yl)-methanone]", "inhibition at 3 µM": "75 to 95"}
{"smiles": "Cc1c(-c2ccc(F)cc2)c(C(=O)N2CC(F)(F)C2)n(Cc2ccccc2)c1C(F)(F)F", "note": "[SC-95, [1-Benzyl-3-(4-fluorophenyl)-4-methyl-5-(trifluoromethyl)-1H-pyrrol-2-yl]-(3,3-difluoro-azetidin-1-yl)-methanone]", "inhibition at 3 µM": "75 to 95"}
{"smiles": "Cc1c(-c2ccc(C(F)(F)F)cc2)c(C(=O)N2CC(F)(F)C2)n(Cc2ccccc2)c1C(F)(F)F", "note": "[SC-96, [1-Benzyl-4-methyl-5-(trifluoromethyl)-3-[4-(trifluoromethyl)-phenyl]-1H-pyrrol-2-yl]-(3,3-difluoro-azetidin-1-yl)-methanone]", "inhibition at 3 µM": "40 to 75"}
{"smiles": "Cc1c(-c2ccc(OC(F)(F)F)cc2)c(C(=O)N2CC(F)(F)C2)n(Cc2ccccc2)c1C(F)(F)F", "note": "[SC-97, [1-Benzyl-4-methyl-5-(trifluoromethyl)-3-[4-(trifluoromethyloxy)-phenyl]-1H-pyrrol-2-yl]-(3,3-difluoro-azetidin-1-yl)-methanone]", "inhibition at 3 µM": "40 to 75"}
{"smiles": "Cc1c(-c2ccc(Cl)c(F)c2)c(C(=O)N2CC(F)(F)C2)n(Cc2ccccc2)c1C(F)(F)F", "note": "[SC-98, [1-Benzyl-3-(4-chloro-3-fluoro-phenyl)-4-methyl-5-(trifluoromethyl)-1H-pyrrol-2-yl]-(3,3-difluoro-azetidin-1-yl)-methanone]", "inhibition at 3 µM": "40 to 75"}
{"smiles": "Cc1c(-c2ccc(F)c(Cl)c2)c(C(=O)N2CC(F)(F)C2)n(Cc2ccccc2)c1C(F)(F)F", "note": "[SC-99, [1-Benzyl-3-(3-chloro-4-fluoro-phenyl)-4-methyl-5-(trifluoromethyl)-1H-pyrrol-2-yl]-(3,3-difluoro-azetidin-1-yl)-methanone]", "inhibition at 3 µM": "40 to 75"}
{"smiles": "Cc1c(-c2ccc(Cl)cc2F)c(C(=O)N2CC(F)(F)C2)n(Cc2ccccc2)c1C(F)(F)F", "note": "[SC-100, [1-Benzyl-3-(4-chloro-2-fluoro-phenyl)-4-methyl-5-(trifluoromethyl)-1H-pyrrol-2-yl]-(3,3-difluoro-azetidin-1-yl)-methanone]", "inhibition at 3 µM": "75 to 95"}
{"smiles": "Cc1c(-c2ccc(F)cc2)c(C(=O)N2CCOCC2)n(Cc2ccccc2)c1C(F)(F)F", "note": "[SC-101, [1-Benzyl-3-(4-fluorophenyl)-4-methyl-5-(trifluoromethyl)-1H-pyrrol-2-yl]-morpholin-4-yl-methanone]", "inhibition at 3 µM": "> 95"}
{"smiles": "Cc1c(-c2ccc(C(F)(F)F)cc2)c(C(=O)N2CCOCC2)n(Cc2ccccc2)c1C(F)(F)F", "note": "[SC-102, [1-Benzyl-4-methyl-5-(trifluoromethyl)-3-[4-(trifluoromethyl)-phenyl]-1H-pyrrol-2-yl]-morpholin-4-yl-methanone]", "inhibition at 3 µM": "75 to 95"}
{"smiles": "Cc1c(-c2ccc(Cl)c(F)c2)c(C(=O)N2CCOCC2)n(Cc2ccccc2)c1C(F)(F)F", "note": "[SC-103, [1-Benzyl-3-(4-chloro-3-fluoro-phenyl)-4-methyl-5-(trifluoromethyl)-1H-pyrrol-2-yl]-morpholin-4-yl-methanone]", "inhibition at 3 µM": "75 to 95"}
{"smiles": "Cc1c(-c2ccc(F)c(Cl)c2)c(C(=O)N2CCOCC2)n(Cc2ccccc2)c1C(F)(F)F", "note": "[SC-104, [1-Benzyl-3-(3-chloro-4-fluoro-phenyl)-4-methyl-5-(trifluoromethyl)-1H-pyrrol-2-yl]-morpholin-4-yl-methanone]", "inhibition at 3 µM": "75 to 95"}
{"smiles": "Cc1c(-c2ccc(OC(F)(F)F)cc2)c(C(=O)N2CCOCC2)n(Cc2ccccc2)c1C(F)(F)F", "note": "[SC-105, [1-Benzyl-4-methyl-5-(trifluoromethyl)-3-[4-(trifluoromethyloxy)-phenyl]-1H-pyrrol-2-yl]-morpholin-4-yl-methanone]", "inhibition at 3 µM": "75 to 95"}
{"smiles": "Cc1c(-c2ccc(Cl)cc2)c(C(=O)N(C)CC(C)(C)CO)n(Cc2ccccc2)c1C(F)(F)F", "note": "[SC-106, 1-Benzyl-3-(4-chlorophenyl)-N-(3-hydroxy-2,2-dimethyl-propyl)-N,4-dimethyl-5-(trifluoromethyl)-1H-pyrrole-2-carboxylic acid amide]", "inhibition at 3 µM": "> 95"}
{"smiles": "Cc1c(-c2ccc(Cl)cc2F)c(C(=O)N(C)CC(C)(C)CO)n(Cc2ccccc2)c1C(F)(F)F", "note": "[SC-107, 1-Benzyl-3-(4-chloro-2-fluoro-phenyl)-N-(3-hydroxy-2,2-dimethyl-propyl)-N,4-dimethyl-5-(trifluoromethyl)-1H-pyrrole-2-carboxylic acid amide]", "inhibition at 3 µM": "> 95"}
{"smiles": "Cc1c(-c2ccc(Cl)cc2)c(C(=O)N(C)CCC(C)(C)O)n(Cc2ccccc2)c1C(F)(F)F", "note": "[SC-113, 1-Benzyl-3-(4-chlorophenyl)-N-(3-hydroxy-3-methyl-butyl)-N,4-dimethyl-5-(trifluoromethyl)-1H-pyrrole-2-carboxylic acid amide]", "inhibition at 3 µM": "> 95"}
{"smiles": "Cc1c(-c2ccc(Cl)cc2)c(C(=O)N(C)CC2(CO)CC2)n(Cc2ccccc2)c1C(F)(F)F", "note": "[SC-115, 1-Benzyl-3-(4-chlorophenyl)-N-[[1-(hydroxymethyl)-cyclopropyl]-methyl]-N,4-dimethyl-5-(trifluoromethyl)-1H-pyrrole-2-carboxylic acid amide]", "inhibition at 3 µM": "> 95"}
